Active and inactive are the calls of the source.
Key:
[1] = molecular target: Photoreceptor-specific nuclear receptor (Homo sapiens, UniProt Q9Y5X4); type: functional, cell-based;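 further: CHO-S cells with Gal4-NCOR and VP16-NR2E3 two-hybrid luciferase reporter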
[2] = molecular target: T1, Polyadenylate-binding protein 1 (Homo sapiens, UniProt P11940); test: PABP1 MLLE–PAM2 interaction inhibitors, dose response, miRNA deadenylation inhibitor project, biochemical, fluorescence polarization, Cy5-PAM2 peptide, secondary (AID 602260); type: functional; conditions: read-out: IC50_Mean
T1 sequence (P11940 whole entry): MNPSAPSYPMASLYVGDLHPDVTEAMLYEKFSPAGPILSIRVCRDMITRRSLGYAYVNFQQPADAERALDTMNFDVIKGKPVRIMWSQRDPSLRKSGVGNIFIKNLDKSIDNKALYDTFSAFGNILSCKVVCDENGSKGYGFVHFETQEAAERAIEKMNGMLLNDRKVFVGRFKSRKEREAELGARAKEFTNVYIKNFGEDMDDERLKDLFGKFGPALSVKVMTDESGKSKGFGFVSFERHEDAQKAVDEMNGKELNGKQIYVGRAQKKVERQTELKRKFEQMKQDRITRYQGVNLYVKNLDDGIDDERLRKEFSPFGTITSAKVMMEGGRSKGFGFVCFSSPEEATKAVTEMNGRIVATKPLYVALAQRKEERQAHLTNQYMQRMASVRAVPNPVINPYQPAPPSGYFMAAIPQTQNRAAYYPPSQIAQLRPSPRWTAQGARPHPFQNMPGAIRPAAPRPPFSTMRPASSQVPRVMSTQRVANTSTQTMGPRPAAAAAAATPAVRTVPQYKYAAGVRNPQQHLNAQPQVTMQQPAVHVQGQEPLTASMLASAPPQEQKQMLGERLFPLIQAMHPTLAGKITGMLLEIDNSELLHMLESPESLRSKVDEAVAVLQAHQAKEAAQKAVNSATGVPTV

[3] = molecular target: T2, Mitochondrial peptide methionine sulfoxide reductase (Bos taurus, UniProt P54149); test: Absorbance-based biochemical high throughput dose response assay for activators of Methionine sulfoxide reductase A (MsrA).; type: functional
T2 sequence (P54149 whole entry): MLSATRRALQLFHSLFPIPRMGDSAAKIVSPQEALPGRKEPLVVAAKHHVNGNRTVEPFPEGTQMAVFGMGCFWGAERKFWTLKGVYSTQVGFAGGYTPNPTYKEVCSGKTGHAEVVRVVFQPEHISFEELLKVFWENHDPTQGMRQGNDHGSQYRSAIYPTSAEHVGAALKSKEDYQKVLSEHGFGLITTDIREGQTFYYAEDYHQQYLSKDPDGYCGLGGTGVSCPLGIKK

[4] = molecular target: T1, Polyadenylate-binding protein 1; test: PABP1 MLLE–PAM2 binding inhibitor potency, dose response, biochemical, fluorescence polarization, FITC-PAM2 peptide (AID 602259); type: functional; conditions: read-out: IC50_Mean
Caspase-3 = molecular target: T3, Caspase-3 (Homo sapiens, UniProt P42574); type: functional;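 further: Dose-response selectivity test against caspase-3 for candidate inhibitors of sentrin-specific proteases (SENPs)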
T3 sequence (P42574 whole entry): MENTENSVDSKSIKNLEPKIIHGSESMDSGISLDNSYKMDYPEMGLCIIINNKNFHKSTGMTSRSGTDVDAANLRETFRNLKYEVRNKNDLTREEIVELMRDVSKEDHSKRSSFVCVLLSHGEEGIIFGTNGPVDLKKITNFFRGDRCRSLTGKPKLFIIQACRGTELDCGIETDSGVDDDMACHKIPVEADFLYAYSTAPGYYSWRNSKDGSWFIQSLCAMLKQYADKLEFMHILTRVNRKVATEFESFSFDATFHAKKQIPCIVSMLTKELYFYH

[5] = molecular target: T4, Sentrin-specific protease 7 (Homo sapiens, UniProt Q9BQF6); type: functional;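 further: Luminescence-based dose-response confirmation of ultra-high-throughput screening hits, measuring inhibition of SENP7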
T4 sequence (Q9BQF6 whole entry): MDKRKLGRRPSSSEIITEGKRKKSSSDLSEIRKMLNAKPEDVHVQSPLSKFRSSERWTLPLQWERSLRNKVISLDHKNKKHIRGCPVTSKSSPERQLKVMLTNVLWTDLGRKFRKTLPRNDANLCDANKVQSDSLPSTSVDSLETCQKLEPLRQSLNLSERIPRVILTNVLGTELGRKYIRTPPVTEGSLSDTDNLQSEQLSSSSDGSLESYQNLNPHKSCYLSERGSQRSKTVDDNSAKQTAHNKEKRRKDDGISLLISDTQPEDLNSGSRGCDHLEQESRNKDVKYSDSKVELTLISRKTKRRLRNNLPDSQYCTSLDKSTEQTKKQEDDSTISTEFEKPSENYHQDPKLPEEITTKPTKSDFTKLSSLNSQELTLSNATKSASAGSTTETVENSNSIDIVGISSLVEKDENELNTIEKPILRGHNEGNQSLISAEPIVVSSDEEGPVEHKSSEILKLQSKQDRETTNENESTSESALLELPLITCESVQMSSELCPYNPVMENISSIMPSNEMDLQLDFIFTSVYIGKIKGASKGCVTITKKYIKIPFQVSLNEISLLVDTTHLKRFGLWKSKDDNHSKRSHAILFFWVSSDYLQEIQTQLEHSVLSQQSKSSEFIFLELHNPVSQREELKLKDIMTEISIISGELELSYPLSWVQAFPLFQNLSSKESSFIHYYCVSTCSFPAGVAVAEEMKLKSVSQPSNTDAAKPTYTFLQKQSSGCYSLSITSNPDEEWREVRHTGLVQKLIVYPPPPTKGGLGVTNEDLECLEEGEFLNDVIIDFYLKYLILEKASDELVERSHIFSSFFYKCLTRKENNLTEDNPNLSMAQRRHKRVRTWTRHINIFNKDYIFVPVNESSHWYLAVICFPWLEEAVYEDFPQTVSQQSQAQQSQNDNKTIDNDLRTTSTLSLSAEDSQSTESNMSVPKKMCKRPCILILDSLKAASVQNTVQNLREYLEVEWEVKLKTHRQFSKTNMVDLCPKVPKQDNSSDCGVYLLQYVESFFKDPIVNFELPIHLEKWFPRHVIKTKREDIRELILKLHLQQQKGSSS

[6] = molecular target: T5, Sentrin-specific protease 6 (Homo sapiens, UniProt Q9GZR1); type: functional;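 further: Luminescence-based dose-response confirmatory assay of SENP6 inhibition, following up an ultra-high-throughput screen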
T5 sequence (Q9GZR1 whole entry): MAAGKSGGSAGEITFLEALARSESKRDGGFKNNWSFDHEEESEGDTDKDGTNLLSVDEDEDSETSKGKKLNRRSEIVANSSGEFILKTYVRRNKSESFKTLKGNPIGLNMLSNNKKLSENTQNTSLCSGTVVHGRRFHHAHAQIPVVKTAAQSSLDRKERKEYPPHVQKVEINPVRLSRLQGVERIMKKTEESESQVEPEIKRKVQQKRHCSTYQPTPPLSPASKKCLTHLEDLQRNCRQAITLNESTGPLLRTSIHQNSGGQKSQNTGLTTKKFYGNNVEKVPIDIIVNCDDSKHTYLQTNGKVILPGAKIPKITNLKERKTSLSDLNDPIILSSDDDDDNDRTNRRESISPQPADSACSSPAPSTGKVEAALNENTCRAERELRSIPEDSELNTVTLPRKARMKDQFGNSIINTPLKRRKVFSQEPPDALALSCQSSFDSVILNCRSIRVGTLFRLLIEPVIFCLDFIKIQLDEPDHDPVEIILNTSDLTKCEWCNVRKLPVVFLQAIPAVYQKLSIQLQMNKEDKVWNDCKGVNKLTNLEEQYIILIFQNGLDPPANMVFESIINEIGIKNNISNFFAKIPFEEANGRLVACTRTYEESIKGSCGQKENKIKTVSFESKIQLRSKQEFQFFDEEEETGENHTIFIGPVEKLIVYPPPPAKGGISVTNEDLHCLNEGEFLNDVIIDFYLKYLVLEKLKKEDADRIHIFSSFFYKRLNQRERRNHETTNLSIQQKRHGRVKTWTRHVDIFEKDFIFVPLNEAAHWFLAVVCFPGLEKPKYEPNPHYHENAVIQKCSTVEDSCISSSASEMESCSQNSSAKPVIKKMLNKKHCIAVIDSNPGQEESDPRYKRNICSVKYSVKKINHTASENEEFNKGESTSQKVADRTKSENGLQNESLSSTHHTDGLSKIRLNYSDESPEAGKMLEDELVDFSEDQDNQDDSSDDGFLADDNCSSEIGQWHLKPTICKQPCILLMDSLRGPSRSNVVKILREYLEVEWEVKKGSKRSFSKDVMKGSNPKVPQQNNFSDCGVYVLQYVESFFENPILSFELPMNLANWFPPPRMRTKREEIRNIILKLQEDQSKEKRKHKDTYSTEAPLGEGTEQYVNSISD

[7] = molecular target: T6, Sentrin-specific protease 8 (Homo sapiens, UniProt Q96LD8); type: functional;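 further: luminescence read-out of SENP8 inhibition, dose-response confirmation following an ultra-high-throughput screen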
T6 sequence (Q96LD8 whole entry): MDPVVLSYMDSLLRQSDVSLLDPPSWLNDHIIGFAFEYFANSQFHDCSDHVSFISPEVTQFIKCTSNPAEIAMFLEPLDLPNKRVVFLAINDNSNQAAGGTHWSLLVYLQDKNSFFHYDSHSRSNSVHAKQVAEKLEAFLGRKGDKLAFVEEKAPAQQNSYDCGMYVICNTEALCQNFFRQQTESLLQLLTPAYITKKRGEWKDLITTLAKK

[8] = inhibitors of intracellular T. cruzi replication, confirmation, NIH3T3 host cells, beta-gal luminescence (AID 2044); type: functional, cell-based;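 further: intracellular parasites grown in NIH/3T3 mouse fibroblasts as host cells; luminescent beta-galactosidase reporter signal from transgenic T. cruzi replicating inside host cells; inhibitors lower the luminescence signal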
[9] = cytotoxicity toward NIH3T3 fibroblasts, dose response, counter-screen, cell-based, ATP luminescence, mouse fibroblasts (AID 2010); type: functional;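 further: cells exposed to compound for about 90 hours before reading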
cells = type: functional
[10] = molecular target: T7, Endoribonuclease toxin MazF (Escherichia coli K-12, UniProt P0AE70); test: MazF toxin RNase activators, dose response, biochemical, fluorescence, single-stranded RNA substrate, uHTS hits (AID 588481); type: functional
T7 sequence (P0AE70 whole entry): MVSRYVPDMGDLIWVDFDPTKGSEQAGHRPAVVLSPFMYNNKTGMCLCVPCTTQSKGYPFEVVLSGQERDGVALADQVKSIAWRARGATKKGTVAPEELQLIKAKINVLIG

[11] = molecular target: T7, Endoribonuclease toxin MazF; test: fluorescent RNA oligo signal without MazF, dose response, counter-screen for MazEF activator project, biochemical, fluorescence, single-stranded RNase substrate (AID 588502); type: functional
[12] = molecular target: T8, Ubiquitin-conjugating enzyme E2 N (Homo sapiens, UniProt P61088); type: functional;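 further: Dose-response confirmation in a TR-FRET assay detecting UBC13-driven polyubiquitin chain formation, inhibition measured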
T8 sequence (P61088 whole entry): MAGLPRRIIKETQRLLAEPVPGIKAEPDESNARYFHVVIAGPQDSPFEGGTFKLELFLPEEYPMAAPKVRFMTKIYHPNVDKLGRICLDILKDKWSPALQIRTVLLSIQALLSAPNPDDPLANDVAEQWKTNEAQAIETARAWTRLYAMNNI

[13] = molecular target: T9, DNA repair and recombination protein RAD54-like (Homo sapiens, UniProt Q92698); test: inhibitors of human RAD54 branch migration, confirmation, biochemical, fluorescence, cherry-picked samples, dose series (AID 651657); type: functional
T9 sequence (Q92698 whole entry): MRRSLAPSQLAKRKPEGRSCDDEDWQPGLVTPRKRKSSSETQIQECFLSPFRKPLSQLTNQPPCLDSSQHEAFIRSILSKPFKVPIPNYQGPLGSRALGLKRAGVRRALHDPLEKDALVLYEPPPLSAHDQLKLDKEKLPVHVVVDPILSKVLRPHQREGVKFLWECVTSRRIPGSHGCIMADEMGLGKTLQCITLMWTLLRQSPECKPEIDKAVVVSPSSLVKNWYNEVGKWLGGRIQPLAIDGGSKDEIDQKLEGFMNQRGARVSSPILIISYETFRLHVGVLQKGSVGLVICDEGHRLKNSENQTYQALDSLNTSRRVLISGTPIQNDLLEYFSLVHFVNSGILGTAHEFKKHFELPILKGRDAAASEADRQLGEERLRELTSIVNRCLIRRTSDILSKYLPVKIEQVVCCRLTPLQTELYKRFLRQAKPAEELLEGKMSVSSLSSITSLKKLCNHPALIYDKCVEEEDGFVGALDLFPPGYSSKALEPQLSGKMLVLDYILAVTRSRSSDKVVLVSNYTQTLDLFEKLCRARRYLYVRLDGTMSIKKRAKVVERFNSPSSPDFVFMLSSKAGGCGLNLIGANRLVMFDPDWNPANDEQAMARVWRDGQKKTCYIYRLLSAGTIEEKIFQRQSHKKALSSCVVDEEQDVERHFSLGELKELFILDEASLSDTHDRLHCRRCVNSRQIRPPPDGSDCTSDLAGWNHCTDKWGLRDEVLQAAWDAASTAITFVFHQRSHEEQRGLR

[14] = growth suppression of PTEN-null colon cells, dose response, cell-based, HCT116 PTEN knockout (AID 1047); type: functional;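 further: HCT116 colon tumor cells with PTEN knocked out; cells exposed to compound for 60 hours before readout; potency for loss of cell viability measured by luminescence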
[15] = growth suppression of beta-catenin-knockout colon cells, dose response, cell-based, HCT116, human colon tumor (AID 1045); type: functional;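 further: HCT116 colon tumor cells with beta catenin knocked out; cells exposed to compound for 60 hours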
Vero = test: cells; type: functional; conditions: Chlorocebus sabaeus

Photoreceptor-specific nuclear receptor, sequence (Q9Y5X4 whole entry, the tested form may be a part): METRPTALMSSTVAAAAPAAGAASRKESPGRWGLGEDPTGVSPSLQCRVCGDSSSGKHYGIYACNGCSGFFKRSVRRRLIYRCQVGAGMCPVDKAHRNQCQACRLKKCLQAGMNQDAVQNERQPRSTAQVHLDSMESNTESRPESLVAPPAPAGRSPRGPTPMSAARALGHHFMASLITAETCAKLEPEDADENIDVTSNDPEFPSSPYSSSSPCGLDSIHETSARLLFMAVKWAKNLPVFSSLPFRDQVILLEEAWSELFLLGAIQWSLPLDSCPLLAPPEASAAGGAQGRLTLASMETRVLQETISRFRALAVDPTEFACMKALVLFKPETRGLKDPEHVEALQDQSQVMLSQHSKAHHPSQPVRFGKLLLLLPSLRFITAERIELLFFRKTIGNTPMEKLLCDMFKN

With `O=C(c1cc(S(=O)(=O)N2CCN(c3ccccc3)CC2)ccc1Cl)N1CCCCCCC1` the IC50 [1] was 5.5 µM (active).

For `COCc1cc(=O)[nH]c(=S)[nH]1`, the IC50 [2] was > 66 µM (inactive), the EC50 [3] was > 104 µM (inactive) and the IC50 [4] was > 66 µM (inactive).

In the case of `Brc1ccc(NN=Nc2ccccc2)cc1`, the IC50 (Caspase-3) is reported as 27.1 µM (active), the IC50 [5] is reported as 4.66 µM (active) and the IC50 [6] is reported as 11.2 µM (active). For the same molecule, the IC50 [7] was 10.9 µM (active).

With `O=C(OCC(=O)N1CCC(c2ccccc2)=N1)c1ccc([N+](=O)[O-])s1` the EC50 [8] was 809 nM (active), the EC50 [9] was > 30 µM (not active) and the IC50 (Caspase-3) was 28.2 µM (active). For the same molecule, the IC50 [5] was 18.9 µM (active), the IC50 [6] was 7.19 µM (active) and the IC50 [7] was 5.92 µM (active). For the same molecule, the IC50 (cells) was 1.13 µM (active).

For `O=C(Nc1ccccc1)c1ccc(-c2ccccc2Cl)o1`, the IC50 (Caspase-3) was 74.3 µM (active), the IC50 [5] was 4.47 µM (active) and the IC50 [6] was > 100 µM (inactive). For the same molecule, the IC50 [7] was > 100 µM (inactive).

For `COc1ccc(-c2cc(C)no2)cc1S(=O)(=O)N1CCOc2ccc(C)cc21`, the EC50 [10] was > 99 µM (inactive) and the EC50 [11] was > 99 µM (inactive).

For `CCCCN(CC)CCCNC(=O)c1cc2c(=O)n(C)c3ccccc3c2n1C`, the IC50 [12] was > 20 µM (inactive) and the AC50 [13] was 22.2 µM (active).

For `CCCCC(=O)NNC(=S)NC(=O)c1ccc([N+](=O)[O-])cc1`, the EC50 [3] was > 104 µM (inactive).

With `Cc1ccc(-c2nc(N(C)C3CCN(C)CC3)c3ccccc3n2)cc1` the EC50 [14] was 6.77 µM (active), the EC50 [15] was 6.51 µM (active) and the CC50 (Vero) was 16.3 µM (active). For the same molecule, the AC50 [13] was 3.93 µM (active).

With `COc1cccc(NC(=O)c2ccc(-c3ccc([N+](=O)[O-])cc3)o2)c1` the EC50 [10] was > 99 µM (inactive) and the EC50 [11] was > 99 µM (inactive).

With `CCOC(=O)C1=C(C)N=c2s/c(=C/c3ccccc3)c(=O)n2C1c1ccc(OC)c(OC)c1` (configuration not stated) the EC50 [10] was > 99 µM (inactive) and the EC50 [11] was > 99 µM (inactive).
